ChEMBL document CHEMBL1909560, “Design and synthesis of a library of chemokine antagonists” (Bioorg Med Chem Lett, 2011)

target: T1, C-C chemokine receptor type 3 (Homo sapiens, UniProt P51677); experiment: Displacement of [125I]-eotaxin from CCR3 expressed in RBL-2H3 cells by scintillation proximity assay; assay type: cell-based
T1 sequence (P51677 whole entry): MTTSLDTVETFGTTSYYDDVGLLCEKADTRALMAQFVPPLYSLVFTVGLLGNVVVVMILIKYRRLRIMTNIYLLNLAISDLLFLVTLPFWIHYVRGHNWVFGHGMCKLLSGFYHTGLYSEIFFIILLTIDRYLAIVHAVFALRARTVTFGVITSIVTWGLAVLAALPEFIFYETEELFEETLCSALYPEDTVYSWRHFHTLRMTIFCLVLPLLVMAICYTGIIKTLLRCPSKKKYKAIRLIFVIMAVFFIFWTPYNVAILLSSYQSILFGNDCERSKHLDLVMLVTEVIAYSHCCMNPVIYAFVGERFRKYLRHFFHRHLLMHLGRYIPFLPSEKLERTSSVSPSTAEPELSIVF

SMILES | IC50 [nM]
O=C(NCCCCN1CCC(Oc2ccc(F)cc2)C1)Nc1ccc(F)c(F)c1 (configuration not stated) | 76
COc1ccc(Cl)cc1NC(=O)NCCCCN(C)Cc1ccc(F)cc1 | 82
O=C(NCCCN1CCC(c2ccc(F)cc2)CC1)C1=Cc2cc(Br)ccc2OCC1 | 1000

The next lines start with the values.

IC50 [nM] | SMILES
65 | COc1ccc(OC)c(S(=O)(=O)N2CCC(CN3CCN(Cc4ccc(F)cc4)CC3)CC2)c1
1190 | COc1ccc(OC)c(S(=O)(=O)N2CCC(CN3CCC(Cc4ccc(F)cc4)CC3)CC2)c1

target: C-C chemokine receptor type 5 (Homo sapiens, UniProt P51681); experiment: Displacement of [125I]-MIP-1- alpha from CCR5 expressed in CHO K1 cells by scintillation proximity assay; assay type: cell-based
Sequence (P51681 whole entry): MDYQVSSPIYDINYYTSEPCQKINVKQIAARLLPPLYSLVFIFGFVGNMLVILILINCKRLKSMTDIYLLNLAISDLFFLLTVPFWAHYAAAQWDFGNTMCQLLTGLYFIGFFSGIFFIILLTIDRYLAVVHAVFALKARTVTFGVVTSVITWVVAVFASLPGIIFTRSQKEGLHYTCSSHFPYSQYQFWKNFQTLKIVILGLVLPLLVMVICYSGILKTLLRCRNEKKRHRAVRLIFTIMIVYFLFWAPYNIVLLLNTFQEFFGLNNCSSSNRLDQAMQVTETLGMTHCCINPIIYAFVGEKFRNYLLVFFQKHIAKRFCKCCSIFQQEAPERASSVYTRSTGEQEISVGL

IC50 [nM] | SMILES
1300 | COc1ccc(C)cc1S(=O)(=O)N1CCC(CN2CCC(c3ccc(F)cc3)CC2)CC1
1000 | N#Cc1cccc(C(=O)NCCCN2CCC(COCc3ccc(F)cc3)CC2)c1
2850 | COc1ccc(OC)c(S(=O)(=O)N2CCC(CN3CCC(Cc4ccc(F)cc4)CC3)CC2)c1

target: C-C chemokine receptor type 2 (Homo sapiens, UniProt P41597); experiment: Displacement of [125I]-MIP-1alpha 125I]-MCP1 from CCR2 expressed in CHO ducX#98 cells by scintillation proximity assay; assay type: cell-based
Sequence (P41597 whole entry): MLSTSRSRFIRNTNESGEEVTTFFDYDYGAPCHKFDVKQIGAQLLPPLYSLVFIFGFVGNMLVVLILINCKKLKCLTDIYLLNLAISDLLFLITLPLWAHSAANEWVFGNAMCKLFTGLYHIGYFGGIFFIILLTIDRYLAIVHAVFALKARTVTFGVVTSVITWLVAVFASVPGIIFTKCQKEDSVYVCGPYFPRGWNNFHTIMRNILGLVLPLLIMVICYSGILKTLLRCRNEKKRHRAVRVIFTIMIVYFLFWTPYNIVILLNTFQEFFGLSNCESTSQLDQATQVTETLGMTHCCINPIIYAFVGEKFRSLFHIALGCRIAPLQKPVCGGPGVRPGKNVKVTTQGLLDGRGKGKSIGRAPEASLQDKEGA

IC50 [nM] | SMILES
1880 | O=C(NCCCCN1CCC(Cc2ccc(F)cc2)CC1)Nc1ccc(OC(F)(F)F)cc1
925 | O=C(NCCCN1CCC(c2ccc(F)cc2)CC1)C1=Cc2cc(Br)ccc2OCC1

target: T2, C-C chemokine receptor type 1 (Homo sapiens, UniProt P32246); experiment: Displacement of [125I]-MIP-1alpha 125I]-MCP1 from CCR1 expressed in CHO-K1 cells by scintillation proximity assay; assay type: cell-based
T2 sequence (P32246 whole entry): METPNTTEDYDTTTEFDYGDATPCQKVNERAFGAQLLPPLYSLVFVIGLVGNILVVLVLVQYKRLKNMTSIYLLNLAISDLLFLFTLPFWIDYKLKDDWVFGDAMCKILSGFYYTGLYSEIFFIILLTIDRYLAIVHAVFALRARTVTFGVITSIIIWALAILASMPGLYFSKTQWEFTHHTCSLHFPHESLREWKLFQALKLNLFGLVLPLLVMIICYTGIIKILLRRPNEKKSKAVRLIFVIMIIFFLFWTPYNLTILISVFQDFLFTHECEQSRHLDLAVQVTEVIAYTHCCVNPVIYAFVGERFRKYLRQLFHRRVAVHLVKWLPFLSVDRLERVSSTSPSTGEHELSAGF

SMILES | IC50 [nM]
Cc1noc(C)c1S(=O)(=O)NCCCN1CCC(O)(c2ccc(Cl)cc2)CC1 | 261
O=C(NCCCCN1CCC(Oc2ccc(F)cc2)C1)NCc1ccc(Br)cc1 (configuration not stated) | 387
